Patent US20260165988A1, “PHARMACEUTICAL COMPOSITION FOR PREVENTING OR TREATING HEARING LOSS COMPRISING AMMONIUM LACTATE AS ACTIVE INGREDIENT” (KOREA UNIVERSITY RESEARCH AND BUSINESS FOUNDATION, priority 2022, published 2026)

Test system: hair cells in the lateral line of zebrafish
Assay: Analysis of hair cells in zebrafish larvae: protection against gentamicin-induced hair cell damage
Type: in vivo
Method: Zebrafish larvae (Wild type, Brn3c: EGFP, etc.) were cultured in the breeding room of our research institute. Each larva was cultured in embryo medium (15 mM NaCl, 0.5 mM KCl, 1 mM CaCl2, 1 mM MgSO4, 0.15 mM KH2PO4, 0.05 mM […], and 0.7 mM NaHCO3).
Gentamicin, an ototoxicity-inducing substance, was administered to zebrafish 5 days after fertilization, and the concentration of […] (LC 50) that induces 50% damage to hair cells in the lateral line of zebrafish as well as the time were determined. In the study results, 50 μM gentamicin was chosen since approximately 50% of the hair cells were damaged when administered for 1 hour. The effect was observed when 10 μM, 100 μM, 500 μM, and 1000 μM ammonium lactate were co-administered with 50 μM gentamicin for 1 hour.
There were four sites in hair cells of zebrafish, including orbits (SO1 and SO2), ear (O1), and larynx (OC1), and the number of hair cells was analyzed using a microscope (fluorescence microscope, confocal microscope, etc.). The effects of candidate substances capable of suppressing damage to hair cells caused by gentamicin were compared and analyzed by administering the candidate substances to zebrafish larvae at different concentrations.
To verify the protective effect of ammonium lactate on hair cells in zebrafish, ammonium lactate and gentamicin were co-administered to zebrafish, and the viability of hair cells was compared with that of the control group.

Row | Molecule | hair cells damaged (50 μM gentamicin administered for 1 hour, zebrafish 5 days after fertilization) | decrease in the viability of hair cells (50 μM gentamicin only vs untreated control) [%] | number of hair cells (50 μM gentamicin only, no ammonium lactate, untreated control 53) | viability of hair cells (trend) (10 μM, 100 μM, 500 μM and 1000 μM ammonium lactate co-administered with 50 μM gentamicin) | increase in the viability of hair cells (100 μM ammonium lactate + 50 μM gentamicin) | number of hair cells (100 μM ammonium lactate co-administered with 50 μM gentamicin for 1 hour, gentamicin only 26) | increase in the viability of hair cells (500 μM ammonium lactate + 50 μM gentamicin) | number of hair cells (500 μM ammonium lactate co-administered with 50 μM gentamicin for 1 hour, gentamicin only 26) | increase in the viability of hair cells (1000 μM ammonium lactate + 50 μM gentamicin) [%] | number of hair cells (1000 μM ammonium lactate co-administered with 50 μM gentamicin for 1 hour, gentamicin only 26) | protective effect on hair cells (conclusion) (zebrafish, gentamicin-induced damage)
1 | gentamicin [reference compound] | approximately 50% | 50 | 26 |  |  |  |  |  |  |  | 
2 | CC(O)C(=O)O.N (centres unmarked) [ammonium lactate] |  |  |  | increased in a concentration-dependent manner | approximately 10% | 28 | approximately 10% | 29 | ≥ 60 | 42 | has a protective effect on hair cells
